The text below walks through data of patent US20200131669A1, “CYCLIC PEPTIDE COMPOUND HAVING HIGH MEMBRANE PERMEABILITY, AND LIBRARY CONTAINING SAME” (Chugai Seiyaku Kabushiki Kaisha, priority 2017, published 2020).

Starred links: 1 amine or outer side, 2 acyl side, 3 side chain; linkers in the order of their positions; H or OH if unused. Positions of bridges follow the written chain, without caps; N, C: chain ends. Non-standard residues stand in square brackets, D forms with d. Residues, ends and D or L forms follow the SMILES beside them. ξ: configuration not given here. *: point of attachment. X18 = CC(C(=O)[C@H](COC(C)(C)C)N[*:1])[C@@H](Cc1ccccc1)C(=O)[*:2]; Glu(NHSO2Me) = CS(=O)(=O)NC(=O)CC[C@H](N)C(=O)O; NMePhe(3-Cl) = CN[C@@H](Cc1cccc(Cl)c1)C(=O)O; hNle(7,7-F2) = N[C@@H](CCCCC(F)F)C(=O)O; NMehPhe = CN[C@@H](CCc1ccccc1)C(=O)O; Ethyl(2-morpholino) = C1CN(CC*)CCO1; Gly(N-(CH2)2OEt) = CCOCCNCC(=O)O; NMeF = CN[C@@H](Cc1ccccc1)C(=O)O; Butyl(3-Me,3-OH) = CC(C)(O)CC*; NMeD = CN[C@@H](CC(=O)O)C(=O)O; NMeL = CN[C@@H](CC(C)C)C(=O)O; NMeV = CN[C@H](C(=O)O)C(C)C; NMeAbu = CC[C@H](NC)C(=O)O; NPentylGly = CCCCCNCC(=O)O; NMeS = CN[C@@H](CO)C(=O)O; NMeA = CN[C@@H](C)C(=O)O; Piperidide = C1CCN(*)CC1; Abu = CC[C@H](N)C(=O)O; NBuGly = CCCCNCC(=O)O; Isopentyl = CC(C)CC*; ξS = NC(CO)C(=O)O; Sar = CNCC(=O)O; tBu = CC(C)(C)*

The nature of one data set: Caco-2 membrane permeability, improved method as used in the following Examples (96-well, 20 to 24 h preincubation). It is filed as in vitro ADME. As to conditions: Caco-2, Caco-2. In outline:
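Caco-2 monolayers were grown three weeks and preincubated 20–24 h at 37 °C with compound in DMEM+FaSSIF (1% DMSO) apically. The assay then used compound in FaSSIF/HBSS (1% DMSO, pH 6.0) apically and HBSS with 4% BSA (pH 7.4) basally. Basal samples were taken at 180 min for LC/MS, and Papp (cm/sec) was calculated.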
In general terms: Passage across Caco-2 layers is used to estimate intestinal permeability.
`CC(C)C[C@@H]1NC(=O)[C@H](CCc2ccccc2)N(C)C(=O)[C@@H](C(C)C)NC(=O)C[C@@H](C(=O)N2CCCCC2)NC(=O)[C@H](CC(C)C)N(C)C(=O)[C@H](Cc2ccccc2)N(C)C(=O)[C@H](COCCC(C)(C)O)NC(=O)[C@H](CC(C)C)N(C)C(=O)CN(C)C(=O)[C@H]([C@@H](C)O)NC(=O)[C@H](CC(C)C)N(C)C1=O` [pd438] ([dV][NMehPhe]L[NMeL]T[Sar][NMeL]S(Butyl(3-Me,3-OH))[NMeF][NMeL]D-Piperidide; lactam N-11) yielded a Papp A→B of 1 ×10⁻⁶ cm/s.

The same data set, now with this note: human, Caco-2, Caco-2.
As for `CCCCN1CC(=O)N(C)[C@@H](CC(C)C)C(=O)N[C@H](C(=O)N2CCCCC2)CC(=O)N(C)[C@@H](CC)C(=O)NC(COCCN2CCOCC2)C(=O)N(C)[C@@H](CC(C)C)C(=O)N(C)[C@@H](CC)C(=O)N[C@@H](C(C)C)C(=O)N(C)[C@@H](Cc2ccccc2)C(=O)N(C)[C@@H](CC(C)C)C(=O)N[C@@H]([C@@H](C)O)C1=O` (stereo partly drawn) [pd483] ([NMeAbu][ξS](Ethyl(2-morpholino))[NMeL][NMeAbu]V[NMeF][NMeL]T[NBuGly][NMeL]D-Piperidide; lactam N-11), the Papp A→B at 180 min came to 1.9 ×10⁻⁶ cm/s.
Take `CCCCN1CC(=O)N(C)[C@@H](Cc2ccccc2)C(=O)N[C@@H](CCC(=O)NS(C)(=O)=O)C(=O)N(C)[C@@H](CC(C)C)C(=O)N[C@@H]([C@@H](C)O)C(=O)N(CCCC)CC(=O)N(C)[C@@H](Cc2ccccc2)C(=O)N(C)[C@@H](CC(C)C)C(=O)N[C@@H](CC(C)C)C(=O)N(C)[C@@H](CC(C)C)C(=O)N[C@H](C(=O)N2CCCCC2)CC1=O` [pd65] ([NBuGly][NMeF][Glu(NHSO2Me)][NMeL]T[NBuGly][NMeF][NMeL]L[NMeL]D-Piperidide; lactam N-11): the Papp A→B at 180 min amounted to 0.06 ×10⁻⁶ cm/s.
Regarding `CCCCCN1CC(=O)N[C@@H]([C@@H](C)O)C(=O)N(C)[C@@H](C)C(=O)N(C)[C@@H](CC(C)C)C(=O)N[C@@H](COC(C)(C)C)C(=O)N(C)[C@@H](Cc2ccccc2)C(=O)N(C)[C@@H](CC(C)C)C(=O)N[C@H](C(=O)N2CCCCC2)CC(=O)N[C@H](C)C(=O)N(C)[C@@H](Cc2ccccc2)C(=O)N[C@@H](C(C)C)C1=O` [pd407] ([dA][NMeF]V[NPentylGly]T[NMeA][NMeL]S(tBu)[NMeF][NMeL]D-Piperidide; lactam N-11), the Papp A→B at 180 min stood at 3 ×10⁻⁶ cm/s.
Regarding `CC(C)C[C@@H]1NC(=O)[C@H](Cc2ccccc2)N(C)C(=O)[C@@H](C(C)C)NC(=O)C[C@@H](C(=O)N2CCCCC2)NC(=O)[C@H](C(C)C)N(C)C(=O)[C@H](Cc2ccccc2)N(C)C(=O)[C@H](CCCCC(F)F)NC(=O)[C@H](CC(C)C)N(C)C(=O)CN(C)C(=O)[C@H]([C@@H](C)O)NC(=O)[C@H](CC(C)C)N(C)C1=O` [pd332] ([dV][NMeF]L[NMeL]T[Sar][NMeL][hNle(7,7-F2)][NMeF][NMeV]D-Piperidide; lactam N-11), the Papp A→B at 180 min was 1.5 ×10⁻⁶ cm/s.
Turning to `CCCCN1CC(=O)N(C)[C@@H](Cc2ccccc2)C(=O)N[C@@H](CCC(=O)NS(C)(=O)=O)C(=O)N(C)[C@@H](CC(C)C)C(=O)N[C@@H](CC(C)C)C(=O)N(C)CC(=O)N(C)[C@@H](Cc2ccccc2)C(=O)N(C)[C@@H](CC(C)C)C(=O)N[C@@H](CC(C)C)C(=O)N(C)[C@@H](CC(C)C)C(=O)N[C@H](C(=O)N2CCCCC2)CC1=O` [pd70] ([NBuGly][NMeF][Glu(NHSO2Me)][NMeL]L[Sar][NMeF][NMeL]L[NMeL]D-Piperidide; lactam N-11), the Papp A→B at 180 min was 0.17 ×10⁻⁶ cm/s.
As for `CCCCN1CC(=O)N(C)[C@@H](CC(C)C)C(=O)N[C@H](C(=O)N2CCCCC2)CC(=O)N(C)[C@@H](CC)C(=O)N[C@@H](CC(C)C)C(=O)N(C)[C@@H](CC(C)C)C(=O)N(C)[C@@H](Cc2ccccc2)C(=O)N[C@@H](CC)C(=O)N(C)[C@@H](Cc2ccccc2)C(=O)N(CCOCC)CC(=O)N[C@@H]([C@@H](C)O)C1=O` [pd419] ([NMeAbu]L[NMeL][NMeF][Abu][NMeF][Gly(N-(CH2)2OEt)]T[NBuGly][NMeL]D-Piperidide; lactam N-11), the Papp A→B at 180 min came out at 2.3 ×10⁻⁶ cm/s.
`CC(C)C[C@@H]1NC(=O)[C@H](Cc2ccccc2)N(C)C(=O)[C@@H](C(C)C)NC(=O)C[C@@H](C(=O)N2CCCCC2)NC(=O)[C@H](CC(C)C)N(C)C(=O)[C@H](Cc2cccc(Cl)c2)N(C)C(=O)[C@H](COCCC(C)(C)O)NC(=O)[C@H](CC(C)C)N(C)C(=O)CN(C)C(=O)[C@H]([C@@H](C)O)NC(=O)[C@H](C(C)C)N(C)C1=O` [pd434] ([dV][NMeF]L[NMeV]T[Sar][NMeL]S(Butyl(3-Me,3-OH))[NMePhe(3-Cl)][NMeL]D-Piperidide; lactam N-11): the Papp A→B at 180 min was 1.7 ×10⁻⁶ cm/s.
In the case of `CC[C@H]1C(=O)N[C@@H]([C@@H](C)O)C(=O)N(C)CC(=O)N(C)[C@@H](COCCC(C)C)C(=O)N[C@@H](CC(C)C)C(=O)N(C)[C@@H](Cc2ccccc2)C(=O)N(C)[C@@H](CC(C)C)C(=O)N[C@H](C(=O)N2CCCCC2)CC(=O)N[C@H](C(C)C)C(=O)N(C)[C@@H](Cc2ccccc2)C(=O)N[C@@H](CC(C)C)C(=O)N1C` [pd306] ([dV][NMeF]L[NMeAbu]T[Sar][NMeS](Isopentyl)L[NMeF][NMeL]D-Piperidide; lactam N-11), the Papp A→B at 180 min is 1.2 ×10⁻⁶ cm/s.

The same data set, now with this note: human, Caco-2, Caco-2 (cm/sec).
For `CC(C)C[C@@H]1NC(=O)[C@H](CC(C)C)N(C)C(=O)[C@@H](C)NC(=O)C[C@@H](C(=O)N2CCCCC2)NC(=O)[C@H](Cc2ccccc2)N(C)C(=O)[C@H](Cc2ccccc2)N(C)C(=O)[C@H](C)N(C)C(=O)[C@H]([C@@H](C)O)NC(=O)[C@H](Cc2ccccc2)N(C)C(=O)[C@H](COC(C)(C)C)NC(=O)[C@H](Cc2ccccc2)N(C)C1=O` [pd234] ([dA][NMeL]L[NMeF]S(tBu)[NMeF]T[NMeA][NMeF][NMeF]D-Piperidide; lactam N-11), the Papp A→B at 180 min was determined as 0.15 ×10⁻⁶ cm/s.
In turn, `CC(C)C[C@@H]1NC(=O)[C@H](Cc2ccccc2)C(C)C(=O)[C@H](COC(C)(C)C)NC(=O)[C@H](Cc2ccccc2)N(C)C(=O)[C@H](C)N(C)C(=O)[C@H](CC(C)C)N(C)C(=O)[C@H]2CCCN2C(=O)C[C@@H](C(=O)N2CCCCC2)N(C)C(=O)[C@H](Cc2ccccc2)N(C)C(=O)[C@H]([C@@H](C)O)NC(=O)[C@H](C(C)C)N(C)C1=O` (stereo partly shown) [pd219] ([dP][NMeL][NMeA][NMeF][X18]L[NMeV]T[NMeF][NMeD]-Piperidide; lactam N-10) returned a Papp A→B at 180 min of 1.1 ×10⁻⁶ cm/s.
`CC(C)C[C@@H]1NC(=O)[C@H](Cc2ccccc2)N(C)C(=O)[C@@H](C(C)C)NC(=O)C[C@@H](C(=O)N2CCCCC2)NC(=O)[C@H](C)N(C)C(=O)[C@H](CC(C)C)N(C)C(=O)[C@H](COC(C)(C)C)NC(=O)[C@H](CC(C)C)N(C)C(=O)CN(C)C(=O)[C@H](Cc2ccc(O)cc2)NC(=O)[C@H](CC(C)C)N(C)C1=O` [pd127] ([dV][NMeF]L[NMeL]Y[Sar][NMeL]S(tBu)[NMeL][NMeA]D-Piperidide; lactam N-11) displayed a Papp A→B at 180 min of 0.13 ×10⁻⁶ cm/s.

Staying with this data set, now noted: human, Caco-2; read-out: Caco-2.
On to `CC[C@H](C)[C@@H]1NC(=O)[C@H](C)N(C)C(=O)C[C@@H](C(=O)N(C)[C@@H](Cc2ccccc2)C(=O)N[C@@H](C)C(=O)N2CCCCC2)NC(=O)[C@H](Cc2ccccc2)N(C)C(=O)CN(C)C(=O)[C@H]([C@@H](C)O)NC(=O)[C@H](C)N(C)C(=O)[C@H](C(C)C)N(C)C(=O)[C@H](Cc2ccccc2)NC(=O)[C@H](CC(C)C)N(C)C(=O)[C@H](CC(C)C)N(C)C1=O` [pd222] ([NMeA]I[NMeL][NMeL]F[NMeV][NMeA]T[Sar][NMeF]D[NMeF]A-Piperidide; lactam N-11), for which the Papp A→B at 180 min turned out to be 1.1 ×10⁻⁶ cm/s.
